Measurements from patent publication US10282841B1, “Bioinformatic analysis of vascular patterning” (The United States of America as Represented by the …, priority 2011, dated 2019).
Like-named read-outs stand apart in the source and are kept apart here.

Assays:
[1] = tested on: avian chorioallantoic membrane; assay type: in vivo
Excerpt: To develop the VESGEN system mapping capabilities, proangiogenesis and antiangiogenesis factors were first studied in the avian chorioallantoic membrane, a well-established, experimentally convenient 2D, optically accessible model of microvascular remodeling, angiogenesis and angiogenesis therapeutics.

blood vessels = experiment: VESGEN analysis of regulators of blood vessel growth by vessel branching generation; assay type: in vivo; conditions: for vessel number, density or diameter for larger pre-existing vessels: larger pre-existing vessels of G1-G4
Excerpt: The stimulator bFGF and inhibitor TGF-beta1 may be regarded as robust but simple regulators of blood vessel growth, because of their selective regulation of the growth of new small vessels. Other important regulators like vascular endothelial growth factor-165 (VEGF-165), also known as vascular permeability factor (VPF), are more complex in their regulatory activities. […] All healthy and unhealthy (abnormal) fluid shifts in the body are tightly regulated by the small vessels (vascular and lymphatic capillaries) except during trauma such as flesh wounds. The VESGEN system may support analysis of such retinal and brain vascular changes mediating the fluid shifts from images of experimental animals and clinical diagnostic images of humans.

[2] = chorioallantoic membrane, with higher concentrations

## angiostatin
[1]; avian chorioallantoic membrane
  vascular morphology on inhibition of angiogenesis: rendered the vascular tree highly abnormal and irregular

## basic fibroblast growth factor [bFGF]
[1]; avian chorioallantoic membrane
  growth of small vessels: stimulated specifically the robust growth of many small vessels
Blood vessels
  vessel number, density or diameter for larger pre-existing vessels: did not affect
  growth of new small vessels of vessel generation G5 and greater: stimulation of the growth of new small vessels of vessel generation G5 and greater

## transforming growth factor beta-1 [transforming growth factor (TGF) β-1]
[1]; avian chorioallantoic membrane
  vascular morphology on inhibition of angiogenesis: retained a normal vascular morphology
Blood vessels
  vessel number, density or diameter for larger pre-existing vessels: did not affect
  growth of new small vessels of vessel generation G5 and greater: inhibition of the growth of new small vessels of vessel generation G5 and greater

## vascular endothelial growth factor-165 [VEGF]
[1]; avian chorioallantoic membrane, at high concentrations
  diameter of larger vessels: significantly dilated
[1]; avian chorioallantoic membrane, at low concentrations
  growth of new small vessels: stimulated the growth of new small vessels
[1]; chorioallantoic membrane, at low concentrations
  vessel density: increased
[1]; [2]
  diameters of larger arteries: increasing diameters of larger arteries
  vessel density: progressively decreasing vessel density
Blood vessels; blood vessel morphology
  vessel leakage, vessel swelling and vessel tortuosity: induction of vessel leakage, vessel swelling and vessel tortuosity
Blood vessels; lymphatic vascular system
  growth and swelling of the associated lymphatic vascular system: stimulates the growth and swelling of the associated lymphatic vascular system
Blood vessels
  growth of new small vessels of vessel generation G5 and greater: stimulation of the growth of new, small blood vessels
